Experimental data from BindingDB's records for doi:10.1111/cbdd.12116 (University of Troms&#163, 2013).

Molecular target: Sodium-dependent serotonin transporter (Rattus norvegicus, UniProt P31652)
Experiment: In vitro Binding Affinity Assay
Settings: pH 7.7; 25 °C
Experimental: The assay was performed in accordance with the method described by Owens et al. with slight modifications. Rat cerebral cortex was homogenized in 30 volumes of ice-cold 50mM Tris-HCl containing 150mM NaCl and 5mM KCl, pH 7.7, at 25°C and centrifuged at 20,000 x g for 20 min. Pellet was resuspended in 30 volumes of buffer and centrifuged again for 2 more times. The mixture of 240uL of the tissue suspension, 30uL of 1µM imipramine, 30uL of 1nM [3H]-citalopram and 100µL of the analyzed compound (10^-10 to 10^-4M) were incubated at 22°C for 1 h. Incubations were terminated by vacuum filtration and washed twice with 100µL of ice-cold buffer. The radioactivity was measured using a WALLAC 1409 DSA liquid scintillation counter.

Sequence of Sodium-dependent serotonin transporter (P31652 whole entry): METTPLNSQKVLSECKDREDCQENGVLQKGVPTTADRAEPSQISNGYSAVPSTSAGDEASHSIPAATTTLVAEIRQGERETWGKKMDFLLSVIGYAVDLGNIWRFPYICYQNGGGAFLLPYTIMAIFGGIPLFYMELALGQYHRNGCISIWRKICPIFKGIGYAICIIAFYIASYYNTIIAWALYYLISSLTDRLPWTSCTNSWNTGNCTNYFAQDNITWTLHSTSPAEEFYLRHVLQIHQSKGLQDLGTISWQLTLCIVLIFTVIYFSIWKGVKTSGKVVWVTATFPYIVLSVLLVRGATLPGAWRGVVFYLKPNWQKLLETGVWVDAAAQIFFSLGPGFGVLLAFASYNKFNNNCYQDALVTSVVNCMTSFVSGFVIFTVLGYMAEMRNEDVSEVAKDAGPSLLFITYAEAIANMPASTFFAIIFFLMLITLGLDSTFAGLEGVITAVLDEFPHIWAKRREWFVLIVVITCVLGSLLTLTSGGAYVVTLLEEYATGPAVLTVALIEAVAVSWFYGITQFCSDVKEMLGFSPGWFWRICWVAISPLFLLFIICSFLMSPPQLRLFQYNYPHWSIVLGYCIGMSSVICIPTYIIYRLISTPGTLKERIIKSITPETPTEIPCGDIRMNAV

Structure (SMILES) | Ki [nM]
CCCCN1CCN(c2ccc3cc([N+](=O)[O-])ccc3n2)CC1 [2-(4-Butyl-piperazin-1-yl)-6-nitroquinoline (4)] | 24
CCCCCCCCCCN1CCN(c2ccc3cc([N+](=O)[O-])ccc3n2)CC1 [2-(4-Decyl-piperazin-1-yl)-6-nitroquinoline (10)] | 4.5
CCCCCCCCCCCCN1CCN(c2ccc3cc([N+](=O)[O-])ccc3n2)CC1 [2-(4-Dodecyl-piperazin-1-yl)-6-nitroquinoline (12)] | 16.1
CCN1CCN(c2ccc3cc([N+](=O)[O-])ccc3n2)CC1 [2-(4-Ethyl-piperazin-1-yl)-6-nitroquinoline (2)] | 86.1
CCCCCCCN1CCN(c2ccc3cc([N+](=O)[O-])ccc3n2)CC1 [2-(4-Heptyl-piperazin-1-yl)-6-nitroquinoline (7)] | 54.1
CCCCCCN1CCN(c2ccc3cc([N+](=O)[O-])ccc3n2)CC1 [2-(4-Hexyl-piperazin-1-yl)-6-nitroquinoline (6)] | 72.9
CN1CCN(c2ccc3cc([N+](=O)[O-])ccc3n2)CC1 [2-(4-Methyl-piperazin-1-yl)-6-nitroquinoline (1)] | 1300
CCCCCCCCCN1CCN(c2ccc3cc([N+](=O)[O-])ccc3n2)CC1 [2-(4-Nonyl-piperazin-1-yl)-6-nitroquinoline (9)] | 1.8
CCCCCCCCN1CCN(c2ccc3cc([N+](=O)[O-])ccc3n2)CC1 [2-(4-Octyl-piperazin-1-yl)-6-nitroquinoline (8)] | 20.8
CCCCCN1CCN(c2ccc3cc([N+](=O)[O-])ccc3n2)CC1 [2-(4-Pentyl-piperazin-1-yl)-6-nitroquinoline (5)] | 80.5
CCCN1CCN(c2ccc3cc([N+](=O)[O-])ccc3n2)CC1 [2-(4-Propyl-piperazin-1-yl)-6-nitroquinoline (3)] | 496
CCCCCCCCCCCN1CCN(c2ccc3cc([N+](=O)[O-])ccc3n2)CC1 [2-(4-Undecyl-piperazin-1-yl)-6-nitroquinoline (11)] | 12.6
